Experiments:
α2C adrenergic receptor = target: T1, α2C adrenergic receptor (Homo sapiens, UniProt P18825); test: RSAT (Receptor Selection and Amplification Technology) assay, α2C; type: cell-based; conditions: for EC50: cells expressing the receptor alone, receptor-mediated growth response, NA = not active; for RSAT Rel Eff α2C: relative efficacy compared to a standard full agonist
T1 construct: expressed in transfected cells
T1 sequence (P18825 1-462): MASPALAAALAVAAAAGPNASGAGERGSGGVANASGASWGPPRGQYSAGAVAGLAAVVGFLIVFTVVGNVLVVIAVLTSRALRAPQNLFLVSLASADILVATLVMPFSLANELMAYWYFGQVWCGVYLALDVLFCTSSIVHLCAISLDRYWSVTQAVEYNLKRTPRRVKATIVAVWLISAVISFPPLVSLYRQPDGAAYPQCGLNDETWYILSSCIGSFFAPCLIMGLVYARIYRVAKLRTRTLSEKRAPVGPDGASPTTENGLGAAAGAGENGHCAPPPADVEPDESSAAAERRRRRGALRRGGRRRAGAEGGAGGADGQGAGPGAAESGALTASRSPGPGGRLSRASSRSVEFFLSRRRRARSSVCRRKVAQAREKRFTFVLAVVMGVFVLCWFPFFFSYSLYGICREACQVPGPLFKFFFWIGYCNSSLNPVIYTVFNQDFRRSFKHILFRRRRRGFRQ
Procedure: (§1) Cells expressing each of the alpha-2 adrenergic receptors alone were incubated with the various compounds and a receptor-mediated growth response was measured.

α2B adrenergic receptor = target: T2, α2B adrenergic receptor (Homo sapiens, UniProt P18089); test: RSAT (Receptor Selection and Amplification Technology) assay, α2B; type: cell-based; conditions: for EC50: read-out: RSAT EC50 α2B; for RSAT Rel Eff α2B: relative efficacy compared to a standard full agonist
T2 construct: expressed in transfected cells
T2 sequence (P18089 1-450): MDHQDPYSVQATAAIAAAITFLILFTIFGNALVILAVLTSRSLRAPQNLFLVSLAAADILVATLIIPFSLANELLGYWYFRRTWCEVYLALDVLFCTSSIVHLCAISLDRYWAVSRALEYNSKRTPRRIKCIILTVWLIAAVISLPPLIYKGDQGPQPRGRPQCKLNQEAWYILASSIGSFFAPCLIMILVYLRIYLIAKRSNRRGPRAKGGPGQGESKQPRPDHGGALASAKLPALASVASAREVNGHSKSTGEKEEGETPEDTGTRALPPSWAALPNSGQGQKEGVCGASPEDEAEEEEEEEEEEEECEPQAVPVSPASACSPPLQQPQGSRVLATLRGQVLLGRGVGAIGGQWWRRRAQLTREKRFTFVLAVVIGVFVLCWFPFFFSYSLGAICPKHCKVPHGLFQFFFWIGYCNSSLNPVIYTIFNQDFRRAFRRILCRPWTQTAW
Procedure: as §1

[1] = cells expressing the receptor alone, receptor-mediated growth response, NA = not active

Row | SMILES | EC50 (α2C adrenergic receptor) [nM] | RSAT Rel Eff α2C (α2C adrenergic receptor) | EC50 (α2B adrenergic receptor; [1]) [nM] | RSAT Rel Eff α2B (α2B adrenergic receptor) | RSAT EC50 α2B (α2B adrenergic receptor; [1])
1 | Clc1ccccc1C(Cc1ccccc1)NC1=NCCC1 (stereo not shown) [Compound 10] | 13.3 | (0.37) | 12 | (0.51) | 
2 | Fc1cccc(Cl)c1CC(NC1=NCCC1)c1cccc(Cl)c1Cl (stereo not shown) [Compound 17] |  |  | 19.5 | (0.73) | 
3 | c1ccc(CC(NC2=NCCC2)c2ccccc2)cc1 (stereo not shown) [Compound 3] | 14.1 | (0.36) | 21.3 | (0.63) | 
4 | Clc1cccc(C(Cc2ccccc2Br)NC2=NCCC2)c1Cl (stereo not shown) [Compound 12] |  |  | 8.7 | (0.96) | 
5 | Fc1ccc(CC(NC2=NCCC2)c2cccc(Cl)c2Cl)cc1 (stereo not shown) [Compound 11] |  |  | 8 | (0.80) | 
6 | Cc1cccc(C(Cc2cccnc2)NC2=NCCC2)c1C (stereo not shown) [Compound 27] |  |  |  | (1.04) | Potent
7 | c1ccc(C(Cc2ccccn2)NC2=NCCC2)cc1 (stereo not shown) [Compound 24] |  |  | 214 | (0.44) | 
8 | Clc1ccccc1C(Cc1ccncc1)NC1=NCCC1 (stereo not shown) [Compound 4] | 10.3 | (0.56) | 38.4 | (0.57) | 
9 | Cc1cccc(C(Cc2ccccc2)NC2=NCCC2)c1C (stereo not shown) [Compound 6] |  |  | 2.9 | (0.72) | 
10 | Clc1cccc(C(Cc2ccncc2)NC2=NCCC2)c1Cl (stereo not shown) [Compound 1] | 48.4 | (0.59) | 8.9 | (1.25) | 
11 | Clc1cccc(C(CCc2ccccc2)NC2=NCCC2)c1Cl (stereo not shown) [Compound 23] |  |  | 57 | (0.69) | 
12 | Cc1cccc(C(Cc2ccncc2)NC2=NCCC2)c1C (single isomer, unassigned) [Compound 19] |  |  | 210 | (0.58) | 
13 | Fc1c(Cl)cccc1C(Cc1ccccc1)NC1=NCCC1 (stereo not shown) [Compound 14] | 6.3 | (0.36) | 8.6 | (0.96) | 
14 | Cc1c(Br)cncc1CC(NC1=NCCC1)c1cccc(Cl)c1 (stereo not shown) [Compound 32] |  |  | 11.2 | (0.92) | 
15 | Clc1ccc(CC(NC2=NCCC2)c2cccc(Cl)c2Cl)c(Cl)c1 (stereo not shown) [Compound 22] |  |  | 7.1 | (1.03) | 
16 | Cc1cccc(C(Cc2ccncc2)NC2=NCCC2)c1C (stereo not shown) [Compound 2] | 84.8 | (0.37) | 8.7 | (1.04) | 
17 | Clc1cccc(C(Cc2ccccc2)NC2=NCCC2)c1 (stereo not shown) [Compound 8] |  |  | 11.6 | (0.71) | 
